Patent US20090156517A1, “STABLE PHARMACEUTICAL COMPOSITIONS OF AMINOGLYCOSIDE ANTIBIOTICS, ION-CHELATING AGENTS, AND BUFFERS” (priority 2006, published 2009)

Assay: Amounts of antibiotic components in the solution over time (reverse-phase LC/UV for β-lactams and β-lactamase inhibitors, HPLC/evaporation-light-scattering for aminoglycosides)
Type: physicochemical
Method: The amounts of β-lactam antibiotics and β-lactamase inhibitor were determined using C18 reverse-phase LC and UV-VIS detector (Tianjin […] Co., Ltd., analysis method No. HM-K-03). The content of aminoglycoside antibiotics was measured using reverse-phase HPLC and evaporation-light-scattering detector (Tianjin […] Co., Ltd., analysis method No. HM-K-08). […] The relative amount of each antibiotic component in the composition at each time point was expressed as peak area ratio with respect to the corresponding peak area of an external standard.

[1] = Example 6 solution (cefoperazone sodium, sulbactam sodium, etimicin sulfate, disodium EDTA, sodium citrate pH 6.5), room temperature, 0 h
[2] = Example 6 solution (cefoperazone sodium, sulbactam sodium, etimicin sulfate, disodium EDTA, sodium citrate pH 6.5), room temperature, 1 h
[3] = Example 6 solution (cefoperazone sodium, sulbactam sodium, etimicin sulfate, disodium EDTA, sodium citrate pH 6.5), room temperature, 2 h
[4] = Example 6 solution (cefoperazone sodium, sulbactam sodium, etimicin sulfate, disodium EDTA, sodium citrate pH 6.5), room temperature, 4 h
[5] = Example 6 solution (cefoperazone sodium, sulbactam sodium, etimicin sulfate, disodium EDTA, sodium citrate pH 6.5), room temperature, 6 h
[6] = Example 6 solution (cefoperazone sodium, sulbactam sodium, etimicin sulfate, disodium EDTA, sodium citrate pH 6.5), room temperature, 8 h
[7] = Example 7 solution (ceftriaxone sodium, sulbactam sodium, etimicin sulfate, disodium EDTA, sodium citrate pH 6.5), room temperature, 0 h
[8] = Example 7 solution (ceftriaxone sodium, sulbactam sodium, etimicin sulfate, disodium EDTA, sodium citrate pH 6.5), room temperature, 1 h
[9] = Example 7 solution (ceftriaxone sodium, sulbactam sodium, etimicin sulfate, disodium EDTA, sodium citrate pH 6.5), room temperature, 2 h
[10] = Example 7 solution (ceftriaxone sodium, sulbactam sodium, etimicin sulfate, disodium EDTA, sodium citrate pH 6.5), room temperature, 4 h
[11] = Example 7 solution (ceftriaxone sodium, sulbactam sodium, etimicin sulfate, disodium EDTA, sodium citrate pH 6.5), room temperature, 6 h
[12] = Example 7 solution (ceftriaxone sodium, sulbactam sodium, etimicin sulfate, disodium EDTA, sodium citrate pH 6.5), room temperature, 8 h
[13] = Example 11: solution of Example 10 freeze-dried, stored 7 days at 0° C., redissolved, pH 6.0, etimicin sulfate and disodium EDTA added, 0 h
[14] = Example 11: solution of Example 10 freeze-dried, stored 7 days at 0° C., redissolved, pH 6.0, etimicin sulfate and disodium EDTA added, 1 h
[15] = Example 11: solution of Example 10 freeze-dried, stored 7 days at 0° C., redissolved, pH 6.0, etimicin sulfate and disodium EDTA added, 2 h
[16] = Example 11: solution of Example 10 freeze-dried, stored 7 days at 0° C., redissolved, pH 6.0, etimicin sulfate and disodium EDTA added, 4 h
[17] = Example 11: solution of Example 10 freeze-dried, stored 7 days at 0° C., redissolved, pH 6.0, etimicin sulfate and disodium EDTA added, 6 h
[18] = Example 11: solution of Example 10 freeze-dried, stored 7 days at 0° C., redissolved, pH 6.0, etimicin sulfate and disodium EDTA added, 8 h
[19] = Example 14: cefoperazone sodium/tazobactam sodium solution pH 6.75, etimicin sulfate added, 0 h
[20] = Example 14: cefoperazone sodium/tazobactam sodium solution pH 6.75, etimicin sulfate added, 1 h
[21] = Example 14: cefoperazone sodium/tazobactam sodium solution pH 6.75, etimicin sulfate added, 2 h
[22] = Example 14: cefoperazone sodium/tazobactam sodium solution pH 6.75, etimicin sulfate added, 4 h
[23] = Example 14: cefoperazone sodium/tazobactam sodium solution pH 6.75, etimicin sulfate added, 6 h
[24] = Example 14: cefoperazone sodium/tazobactam sodium solution pH 6.75, etimicin sulfate added, 8 h

CCN[C@@H]1C[C@H](N)[C@@H](O[C@H]2O[C@H](CN)CC[C@H]2N)[C@H](O)[C@H]1O[C@H]1OC[C@](C)(O)[C@H](NC)[C@H]1O [Etimicin, etimicin]
Amount of component, percentage of amount at initial time [1]: 108.9%
Amount of component, percentage of amount at initial time [2]: 100.2%
Amount of component, percentage of amount at initial time [3]: 100.5%
Amount of component, percentage of amount at initial time [4]: 100.4%
Amount of component, percentage of amount at initial time [5]: 100.4%
Amount of component, percentage of amount at initial time [6]: 97.50%
Amount of component, percentage of amount at initial time [7]: 100.7%
Amount of component, percentage of amount at initial time [8]: 101.0%
Amount of component, percentage of amount at initial time [9]: 101.0%
Amount of component, percentage of amount at initial time [10]: 101.0%
Amount of component, percentage of amount at initial time [11]: 100.8%
Amount of component, percentage of amount at initial time [12]: 100.7%
Amount of component, percentage of amount at initial time [13]: 94.81%
Amount of component, percentage of amount at initial time [14]: 99.66%
Amount of component, percentage of amount at initial time [15]: 100.9%
Amount of component, percentage of amount at initial time [16]: 101.5%
Amount of component, percentage of amount at initial time [17]: 96.97%
Amount of component, percentage of amount at initial time [18]: 94.44%
Amount of component, percentage of amount at initial time [19]: 100%
Amount of component, percentage of amount at initial time [20]: 98.8%
Amount of component, percentage of amount at initial time [21]: 97.5%
Amount of component, percentage of amount at initial time [22]: 98.4%
Amount of component, percentage of amount at initial time [23]: 95.6%
Amount of component, percentage of amount at initial time [24]: 92.8%

CCN1CCN(C(=O)N[C@@H](C(=O)N[C@@H]2C(=O)N3C(C(=O)O)=C(CSc4nnnn4C)CS[C@H]23)c2ccc(O)cc2)C(=O)C1=O [Cefoperazone sodium, cefoperazone sodium]
Amount of component, percentage of amount at initial time (Example 4 solution (cefoperazone sodium, sulbactam sodium, gentamicin, sodium citrate pH 6.75, no EDTA), room temperature, 0 h): 101.4%
Amount of component, percentage of amount at initial time (Example 4 solution (cefoperazone sodium, sulbactam sodium, gentamicin, sodium citrate pH 6.75, no EDTA), room temperature, 1 h): 98.66%
Amount of component, percentage of amount at initial time (Example 4 solution (cefoperazone sodium, sulbactam sodium, gentamicin, sodium citrate pH 6.75, no EDTA), room temperature, 2 h): 98.79%
Amount of component, percentage of amount at initial time (Example 4 solution (cefoperazone sodium, sulbactam sodium, gentamicin, sodium citrate pH 6.75, no EDTA), room temperature, 4 h): 101.5%
Amount of component, percentage of amount at initial time (Example 4 solution (cefoperazone sodium, sulbactam sodium, gentamicin, sodium citrate pH 6.75, no EDTA), room temperature, 6 h): 107.4%
Amount of component, percentage of amount at initial time (Example 5 solution (cefoperazone sodium, sulbactam sodium, gentamicin, disodium EDTA, sodium citrate pH 6.75), room temperature, 0 h): 101.4%
Amount of component, percentage of amount at initial time (Example 5 solution (cefoperazone sodium, sulbactam sodium, gentamicin, disodium EDTA, sodium citrate pH 6.75), room temperature, 1 h): 98.66%
Amount of component, percentage of amount at initial time (Example 5 solution (cefoperazone sodium, sulbactam sodium, gentamicin, disodium EDTA, sodium citrate pH 6.75), room temperature, 2 h): 98.79%
Amount of component, percentage of amount at initial time (Example 5 solution (cefoperazone sodium, sulbactam sodium, gentamicin, disodium EDTA, sodium citrate pH 6.75), room temperature, 4 h): 101.5%
Amount of component, percentage of amount at initial time (Example 5 solution (cefoperazone sodium, sulbactam sodium, gentamicin, disodium EDTA, sodium citrate pH 6.75), room temperature, 6 h): 107.4%
Amount of component, percentage of amount at initial time [1]: 110.4%
Amount of component, percentage of amount at initial time [2]: 99.48%
Amount of component, percentage of amount at initial time [3]: 101.3%
Amount of component, percentage of amount at initial time [4]: 98.66%
Amount of component, percentage of amount at initial time [5]: 98.02%
Amount of component, percentage of amount at initial time [6]: 99.30%
Amount of component, percentage of amount at initial time (Example 14: cefoperazone sodium/tazobactam sodium solution pH 6.75, disodium EDTA and amikacin sulfate added, room temperature, 0 h): 100.2%
Amount of component, percentage of amount at initial time (Example 14: cefoperazone sodium/tazobactam sodium solution pH 6.75, disodium EDTA and amikacin sulfate added, room temperature, 1 h): 99.0%
Amount of component, percentage of amount at initial time (Example 14: cefoperazone sodium/tazobactam sodium solution pH 6.75, disodium EDTA and amikacin sulfate added, room temperature, 2 h): 99.0%
Amount of component, percentage of amount at initial time (Example 14: cefoperazone sodium/tazobactam sodium solution pH 6.75, disodium EDTA and amikacin sulfate added, room temperature, 4 h): 96.2%
Amount of component, percentage of amount at initial time (Example 14: cefoperazone sodium/tazobactam sodium solution pH 6.75, disodium EDTA and amikacin sulfate added, room temperature, 6 h): 94.5%
Amount of component, percentage of amount at initial time (Example 14: cefoperazone sodium/tazobactam sodium solution pH 6.75, disodium EDTA and amikacin sulfate added, room temperature, 8 h): 95.3%
Amount of component, percentage of amount at initial time [19]: 100.2%
Amount of component, percentage of amount at initial time [20]: 99.0%
Amount of component, percentage of amount at initial time [21]: 99.0%
Amount of component, percentage of amount at initial time [22]: 96.2%
Amount of component, percentage of amount at initial time [23]: 94.5%
Amount of component, percentage of amount at initial time [24]: 95.3%

CCN1CCN(C(=O)N[C@@H](C(=O)N[C@@H]2C(=O)N3[C@@H]2SC(C)(C)[C@@H]3C(=O)O)c2ccccc2)C(=O)C1=O [Piperacillin, piperacillin]
Amount of component, percentage of amount at initial time (Example 10: piperacillin sodium/sulbactam sodium solution cryopreserved 7 days, thawed, pH 6.0, etimicin sulfate added, no EDTA, 0 h): 101.8%
Amount of component, percentage of amount at initial time (Example 10: piperacillin sodium/sulbactam sodium solution cryopreserved 7 days, thawed, pH 6.0, etimicin sulfate added, no EDTA, 1 h): 101.3%
Amount of component, percentage of amount at initial time (Example 10: piperacillin sodium/sulbactam sodium solution cryopreserved 7 days, thawed, pH 6.0, etimicin sulfate added, no EDTA, 2 h): 101.8%
Amount of component, percentage of amount at initial time (Example 10: piperacillin sodium/sulbactam sodium solution cryopreserved 7 days, thawed, pH 6.0, etimicin sulfate added, no EDTA, 4 h): 101.2%
Amount of component, percentage of amount at initial time (Example 10: piperacillin sodium/sulbactam sodium solution cryopreserved 7 days, thawed, pH 6.0, etimicin sulfate added, no EDTA, 6 h): 98.3%
Amount of component, percentage of amount at initial time (Example 10: piperacillin sodium/sulbactam sodium solution cryopreserved 7 days, thawed, pH 6.0, etimicin sulfate added, no EDTA, 8 h): 95.1%
Amount of component, percentage of amount at initial time [13]: 101.8%
Amount of component, percentage of amount at initial time [14]: 101.3%
Amount of component, percentage of amount at initial time [15]: 101.8%
Amount of component, percentage of amount at initial time [16]: 101.2%
Amount of component, percentage of amount at initial time [17]: 98.3%
Amount of component, percentage of amount at initial time [18]: 95.1%
Amount of component, percentage of amount at initial time (Example 12: thawed solution from Example 10, pH 6.0, amikacin sulfate added, no EDTA, 0 h): 101.8%
Amount of component, percentage of amount at initial time (Example 12: thawed solution from Example 10, pH 6.0, amikacin sulfate added, no EDTA, 1 h): 101.3%
Amount of component, percentage of amount at initial time (Example 12: thawed solution from Example 10, pH 6.0, amikacin sulfate added, no EDTA, 2 h): 101.8%
Amount of component, percentage of amount at initial time (Example 12: thawed solution from Example 10, pH 6.0, amikacin sulfate added, no EDTA, 4 h): 101.2%
Amount of component, percentage of amount at initial time (Example 12: thawed solution from Example 10, pH 6.0, amikacin sulfate added, no EDTA, 6 h): 98.3%
Amount of component, percentage of amount at initial time (Example 12: thawed solution from Example 10, pH 6.0, amikacin sulfate added, no EDTA, 8 h): 95.1%

CO/N=C(\C(=O)N[C@@H]1C(=O)N2C(C(=O)O)=C(CSc3nc(=O)c(=O)[nH]n3C)CS[C@H]12)c1csc(N)n1 [Ceftriaxone sodium, ceftriaxone sodium]
Amount of component, percentage of amount at initial time [7]: 97.01%
Amount of component, percentage of amount at initial time [8]: 100.3%
Amount of component, percentage of amount at initial time [9]: 96.40%
Amount of component, percentage of amount at initial time [10]: 99.01%
Amount of component, percentage of amount at initial time [11]: 98.91%
Amount of component, percentage of amount at initial time [12]: 99.53%
Amount of component, percentage of amount at initial time (Example 8 solution (ceftriaxone sodium, tazobactam sodium, gentamicin sulfate, sodium citrate pH 6.75), room temperature, 0 h): 98.75%
Amount of component, percentage of amount at initial time (Example 8 solution (ceftriaxone sodium, tazobactam sodium, gentamicin sulfate, sodium citrate pH 6.75), room temperature, 1 h): 100.1%
Amount of component, percentage of amount at initial time (Example 8 solution (ceftriaxone sodium, tazobactam sodium, gentamicin sulfate, sodium citrate pH 6.75), room temperature, 2 h): 99.97%
Amount of component, percentage of amount at initial time (Example 8 solution (ceftriaxone sodium, tazobactam sodium, gentamicin sulfate, sodium citrate pH 6.75), room temperature, 4 h): 98.87%
Amount of component, percentage of amount at initial time (Example 8 solution (ceftriaxone sodium, tazobactam sodium, gentamicin sulfate, sodium citrate pH 6.75), room temperature, 6 h): 99.27%
Amount of component, percentage of amount at initial time (Example 8 solution (ceftriaxone sodium, tazobactam sodium, gentamicin sulfate, sodium citrate pH 6.75), room temperature, 8 h): 100.5%
